# According to ChEMBL document CHEMBL1201862, “PubChem BioAssay data set” (2004):
#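 Grown in 96-well plates, cells were treated for 48 hours with each compound at five concentrations. Insufficient inhibition: endpoint recorded as highest concentration tested. GI50 marks 50% less growth.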 The source made the active and inactive calls. No stated cut-off is given here; in the data, active = GI50 up to about 1.1 µM and inactive = higher.
# Experiments:
# Test in all cases: NCI-60 cell line screen, 48 h
# [1] = test system: A498
# [2] = test system: COLO 205
# [3] = test system: EKVX
# [4] = test system: HCT-116
# [5] = test system: HOP-92
# [6] = test system: OVCAR-3
# [7] = test system: OVCAR-8
# [8] = test system: RPMI-8226
# [9] = test system: RXF 393
# [10] = test system: SF-295
# [11] = test system: SK-MEL-2
# [12] = test system: SN12C
# [13] = test system: SW-620
# [14] = test system: U-251
# [15] = test system: UACC-257
# [16] = test system: UACC-62
# [17] = test system: UO-31
# [18] = test system: SK-MEL-28
# [19] = test system: SNB-19
Compound,GI50 [1],GI50 [2],GI50 [3],GI50 [4],GI50 [5],GI50 [6],GI50 [7],GI50 [8],GI50 [9],GI50 [10],GI50 [11],GI50 [12],GI50 [13],GI50 [14],GI50 [15],GI50 [16],GI50 [17],GI50 [18],GI50 [19]
CC1C(O)C2(Oc3cc4c(c5c3[C@@H](CC5O)[C@H]2C)CCC2Cc3nc5c(nc3C[C@@]42C)CC2CCC3C4=C[C@H]6O[C@@]7(O[C@@](C)(CO)C[C@@H]7O)C(C)[C@@]6(O)[C@]4(C)[C@@H](O)CC3[C@]2(C)C5)OC1(C)C (stereo partly specified),0.0652 µM (active),0.152 µM (active),0.123 µM (active),0.12 µM (active),0.204 µM (active),0.0891 µM (active),0.428 µM (active),0.0364 µM (active),0.0269 µM (active),0.00531 µM (active),0.114 µM (active),0.377 µM (active),0.201 µM (active),0.00302 µM (active),0.614 µM (active),0.0877 µM (active),1.08 µM (active),–,–
Nc1ccc2[nH]c3c(-c4ccccc4)nccc3c2c1,36.5 µM (inactive),44 µM (inactive),> 100 µM (inactive),34.6 µM (inactive),39.1 µM (inactive),56.9 µM (inactive),72.3 µM (inactive),20.3 µM (inactive),38.2 µM (inactive),41.2 µM (inactive),> 100 µM (inactive),> 87.7 µM (inactive),65.8 µM (inactive),75 µM (inactive),> 75.3 µM (inactive),29.2 µM (inactive),37.7 µM (inactive),> 100 µM (inactive),> 100 µM (inactive)
[N-]=[N+]=CC(=O)OCC(N)C(=O)O (stereo unspecified),0.764 µM (active),0.269 µM (active),0.413 µM (active),0.403 µM (active),82 µM (inactive),0.841 µM (active),1.32 µM (inactive),0.528 µM (active),15.7 µM (inactive),0.923 µM (active),3.28 µM (inactive),0.421 µM (active),0.437 µM (active),0.502 µM (active),95.9 µM (inactive),1.19 µM (inactive),2.61 µM (inactive),3.35 µM (inactive),2.88 µM (inactive)
Nc1ncnc2c1ncn2[C@@H]1O[C@H](COP(=O)(O)O)[C@@H](O)[C@@H]1O,> 50 µM (inactive),> 50 µM (inactive),> 50 µM (inactive),> 50 µM (inactive),> 31.3 µM (inactive),> 50 µM (inactive),12.9 µM (inactive),> 50 µM (inactive),> 50 µM (inactive),> 50 µM (inactive),> 50 µM (inactive),> 50 µM (inactive),> 50 µM (inactive),> 50 µM (inactive),> 50 µM (inactive),> 50 µM (inactive),> 50 µM (inactive),> 50 µM (inactive),> 50 µM (inactive)
CCCCC(C)C1CCC2(C)C=CC(=O)C(C)=C2C1O (stereo unspecified),> 100 µM (inactive),> 100 µM (inactive),> 100 µM (inactive),> 100 µM (inactive),> 100 µM (inactive),> 100 µM (inactive),> 100 µM (inactive),> 100 µM (inactive),> 100 µM (inactive),> 100 µM (inactive),> 100 µM (inactive),> 100 µM (inactive),> 100 µM (inactive),> 100 µM (inactive),> 100 µM (inactive),> 100 µM (inactive),> 100 µM (inactive),> 100 µM (inactive),> 100 µM (inactive)
CC(=O)OCC1OC(n2cc(F)c(=O)[nH]c2=O)C(NC(=O)OCc2ccccc2)C(OC(C)=O)C1OC(C)=O (stereo unspecified),> 100 µM (inactive),–,> 100 µM (inactive),> 100 µM (inactive),> 100 µM (inactive),> 100 µM (inactive),> 100 µM (inactive),> 100 µM (inactive),> 100 µM (inactive),> 100 µM (inactive),> 100 µM (inactive),> 100 µM (inactive),> 100 µM (inactive),> 100 µM (inactive),> 100 µM (inactive),> 100 µM (inactive),> 100 µM (inactive),> 100 µM (inactive),> 100 µM (inactive)
